Key:
[1] = Blood, tumor and tissue concentration after last dose in the tumor model; format: in vivo, Balb/c nude mice; conditions: for concentration at 2 h / concentration at 8 h: female, Balb/c nude (Nu/Nu), mouse, ip; for concentration at 2 h / concentration at 8 h / concentration of MRTX1133 in kidney: 10 mg/kg; for concentration of MRTX1133 in heart / concentration of MRTX1133 in intestine / concentration of MRTX1133 in liver / concentration of MRTX1133 in lung / concentration of MRTX1133 in spleen / concentration of MRTX1133 in stomach / concentration of MRTX1133 in tumor / concentration of MRTX1133 in kidney: from MRTX1133 IP 10 mpk
[2] = tested on: AsPC-1 (pancreatic cancer cell line bearing the KRAS^G12D mutation) xenograft; experiment: AsPC-1 xenograft tumor mouse model efficacy; format: in vivo, Balb/c nude mice; conditions: 16 days
[3] = Tolerability and body weight in mice; format: in vivo; conditions: oral, 300 mpk
[4] = Caco-2 permeability assay; format: in vitro ADME; conditions: human, Table 1
[5] = Stability in mouse liver microsomes; format: in vitro ADME; conditions: pH 7.4
Pharmacokinetics in mice = format: in vivo; conditions: intravenous, 3 mpk
[6] = following IP administration of MRTX1133 (10 mpk), time not given

For `C#Cc1c(F)ccc2cc(O)cc(-c3ncc4c(N5C[C@H]6CC[C@@H](C5)N6C(=O)OC(C)OC(=O)CCC)nc(OC[C@@]56CCCN5C[C@H](F)C6)nc4c3F)c12` (stereo partly drawn) [Compound 9, 1-(Butyryloxy)ethyl (1R,5S)-3-(7-(8-ethynyl-7-fluoro-3-hydroxynaphthalen-1-yl)-8-fluoro-2-(((2R,7aS)-2-fluorotetrahydro-1H-pyrrolizin-7a(5H)-yl)methoxy)pyrido[4,3-d]pyrimidin-4-yl)-3,8-diazabicyclo[3.2.1]octane-8-carboxylate], the “blood concentration of the named Cpd” value ([1]; 8 h post last oral dose of prodrug 9 (high dose, 126 mpk bid) in the tumor model) was “BLQ”, the “tumor growth inhibition (TGI)” value ([2]; high dose 126 mpk (equimolar to 100 mpk MRTX1133) p.o. bid) was 54% and the “tumor growth inhibition (TGI)” value ([2]; low dose 37.8 mpk (equimolar to 30 mpk MRTX1133) p.o. bid) was 20%. The tolerability in mice ([3]; conventional vehicle) was “intolerable” and the tolerability in mice ([3]; lipid-based formulation) was “well-tolerated”.

`C#Cc1c(F)ccc2cc(O)cc(-c3ncc4c(N5CC6CCC(C5)N6)nc(OC[C@@]56CCCN5C[C@H](F)C6)nc4c3F)c12` [MRTX1133] gave a Papp A→B ([4]; Caco-2, Caco-2 permeability Papp A – B) of under 0.48 ×10⁻⁶ cm/s, a Papp B→A ([4]; Caco-2, Caco-2 permeability Papp B – A) of 8.05 ×10⁻⁶ cm/s and an efflux ratio ([4]; Caco-2, Caco-2 permeability efflux ratio) of over 16.8. The concentration at 2 h ([1]; brain) was 131 ng/g, the concentration at 8 h ([1]; brain) was 139 ng/g and the concentration at 2 h ([1]; whole blood) was 654 ng/mL. The concentration at 8 h ([1]; whole blood) was 330 ng/mL, the “concentration of MRTX1133 in the liver, spleen, and lung” value [1, 6] was ~60 000 ng/g and the “concentration of MRTX1133 in the stomach, intestine, and heart” value [1, 6] was ~20 000 ng/g. For the same compound, the “concentration of MRTX1133 in heart” value ([1]; 2 h post last dose) was 18 330 ng/g, the “concentration of MRTX1133 in intestine” value ([1]; 2 h post last dose) was 24 388 ng/g and the “concentration of MRTX1133 in liver” value ([1]; 2 h post last dose) was 63 525 ng/g. The “concentration of MRTX1133 in lung” value ([1]; 2 h post last dose) was 53 040 ng/g, the concentration of MRTX1133 in spleen ([1]; 2 h post last dose) was 58400 ng/g and the “concentration of MRTX1133 in stomach” value ([1]; 2 h post last dose) was 26 325 ng/g. The “concentration of MRTX1133 in tumor” value ([1]; 2 h post last dose) was 11 870 ng/g, the “concentration of MRTX1133 in kidney” value ([1]; 2 h post last dose) was 285 150 ng/g and the “concentration of MRTX1133 in heart” value ([1]; 8 h post last dose) was 15 795 ng/g. The “concentration of MRTX1133 in intestine” value ([1]; 8 h post last dose) was 18 213 ng/g, the “concentration of MRTX1133 in liver” value ([1]; 8 h post last dose) was 62 950 ng/g and the “concentration of MRTX1133 in lung” value ([1]; 8 h post last dose) was 57 300 ng/g. The concentration of MRTX1133 in spleen ([1]; 8 h post last dose) was 54000 ng/g, the “concentration of MRTX1133 in stomach” value ([1]; 8 h post last dose) was 27 775 ng/g and the “concentration of MRTX1133 in tumor” value ([1]; 8 h post last dose) was 14 300 ng/g. The “concentration of MRTX1133 in kidney” value ([1]; 8 h post last dose) was 333 900 ng/g, the antitumor effect ([2]; 100 mpk p.o. bid) was “no apparent antitumor effect” and the CLint scaled at 1 μM [5] was 143 mL/min/kg. The half-life at 1 μM [5] was 38.5 min and the “AUC0–24 h of MRTX1133” value (Pharmacokinetics in mice) was 2253 ng·h/mL.

Reference: publication PMC9948199 (ACS Omega, 2023)
